Assay results as given in patent publication US20260085053A1, “BENZOFURAN DERIVATIVES AS SIK INHIBITORS AND THE USE THEREOF” (BEONE MEDICINES I GMBH, priority 2023, published 2026).

Assays:
[1] = biological target: T1, SIK2 kinase (full length, Thermo Fisher) (Homo sapiens, UniProt Q9H0K1); assay: Biochemical activities determination for SIK2 protein (TR-FRET); conditions: 80 uM ATP, 0.5 μM substrate
T1 construct: SIK2 kinase (full length, Thermo Fisher); purchased Thermo Fisher
Method: 2. Biochemical Activities Determination for SIK2 Protein
(§1) Compounds were tested for inhibition of SIK2 kinase (full length, Thermo Fisher) in assays based on the time-resolved fluorescence-resonance energy transfer (TR-FRET) methodology. The assays were carried out in 384-well low volume white plates in a reaction mixture containing SIK2 kinase, 80 uM ATP, 0.5 μM SIK1 substrate and 0-10 μM compound in buffer containing 25 mM Tris, 0.01% Trition X-100, 0.5 mM EGTA, 5 mM MgCl2, 2.5 mM DTT, pH=7.5. The kinase was incubated with compounds for 60 minutes at room temperature and the reaction was initiated by the addition of ATP and STK1 substrate. After reaction at room temperature for 180 minutes, an equal volume of stop/detection solution was added according to the manufacture's instruction (CisBio Bioassays). The stop/detection solution contained STK Antibody-Cryptate and XL665-conjugated streptavidin (Cat: 62ST1PEC, Cisbio) in Detection Buffer (Cat: 62SDBRDF, Cisbio). Plates were sealed and incubated at room temperature for overnight, and the TR-FRET signals (ratio of fluorescence emission at 665 nm over emission at 620 nm with excitation at 337 nm wavelength) were recorded on a PHERAstar FS plate reader (BMG Labtech). Phosphorylation of STK1 substrate led to the binding of STK Antibody-Cryptate to the biotinylated STK1 substrate, which places fluorescent donor (Eu^3+ crypate) in close proximity to the accepter (Streptavidin-XL665), thus resulting in a high degree of fluorescence resonance energy transfer from the donor fluorophore (at 620 nm) to the acceptor fluorophore (at 665 nm). […] The IC50 for each compound was derived from fitting the data to the four-parameter logistic equation by Dotmatics.

[2] = biological target: T2, SIK1 kinase (aa1-303, Thermo Fisher) (Homo sapiens, UniProt P57059); assay: Biochemical activities determination for SIK1 protein (TR-FRET); conditions: 110 uM ATP, 0.5 μM STK1 substrate
T2 construct: SIK1 kinase (aa1-303, Thermo Fisher); purchased Thermo Fisher
Method: 1. Biochemical Activities Determination for SIK1 Protein
as §1, with “of SIK1” for “of SIK2”, “kinase (aa1-303,” for “kinase (full length,”, “containing SIK1” for “containing SIK2”, “kinase, 110” for “kinase, 80”, “μM STK1” for “μM SIK1”, “biotinylated […]” for “biotinylated STK1”

[3] = biological target: T3, SIK3 kinase (aa59-365, Thermo Fisher) (Homo sapiens, UniProt Q9Y2K2); assay: Biochemical activities determination for SIK3 protein (TR-FRET); conditions: 125 uM ATP, 0.5 μM STK1 substrate
T3 construct: SIK3 kinase (aa59-365, Thermo Fisher); purchased Thermo Fisher
Method: 3. Biochemical Activities Determination for SIK3 Protein
Compounds were tested for inhibition of SIK3 kinase (aa59-365, Thermo Fisher) in assays based on the time-resolved fluorescence-resonance energy transfer (TR-FRET) methodology. The assays were carried out in 384-well low volume white plates in a reaction mixture containing SIK3 kinase, 125 uM ATP, 0.5 μM STK1 substrate and 0-10 μM compound in buffer containing 25 mM Tris, 0.01% Trition X-100, 0.5 mM EGTA, 5 mM MgCl2, 2.5 mM DTT, PH=7.5. The kinase was incubated with compound for 60 minutes at room temperature and the reaction was initiated by the addition of ATP and STK1 substrate. After reaction at room temperature for 180 minutes, an equal volume of stop/detection solution was added according to the manufacture's instruction (CisBio Bioassays). The stop/detection solution contained STK Antibody-Cryptate and XL665-conjugated streptavidin (Cat: 62ST1PEC, Cisbio) in Detection Buffer (Cat: 62SDBRDF, Cisbio). Plates were sealed and incubated at room temperature for overnight, and the TR-FRET signals (ratio of fluorescence emission at 665 nm over emission at 620 nm with excitation at 337 nm wavelength) were recorded on a PHERAstar FS plate reader (BMG Labtech). Phosphorylation of STK1 substrate led to the binding of STK Antibody-Cryptate to the biotinylated STK1 substrate, which places fluorescent donor (Eu^3+ crypate) in close proximity to the accepter (Streptavidin-XL665), thus resulting in a high degree of fluorescence resonance energy transfer from the donor fluorophore (at 620 nm) to the acceptor fluorophore (at 665 nm). […] The IC50 for each compound was derived from fitting the data to the four-parameter logistic equation by Dotmatics.

T1 sequence (Q9H0K1 whole entry): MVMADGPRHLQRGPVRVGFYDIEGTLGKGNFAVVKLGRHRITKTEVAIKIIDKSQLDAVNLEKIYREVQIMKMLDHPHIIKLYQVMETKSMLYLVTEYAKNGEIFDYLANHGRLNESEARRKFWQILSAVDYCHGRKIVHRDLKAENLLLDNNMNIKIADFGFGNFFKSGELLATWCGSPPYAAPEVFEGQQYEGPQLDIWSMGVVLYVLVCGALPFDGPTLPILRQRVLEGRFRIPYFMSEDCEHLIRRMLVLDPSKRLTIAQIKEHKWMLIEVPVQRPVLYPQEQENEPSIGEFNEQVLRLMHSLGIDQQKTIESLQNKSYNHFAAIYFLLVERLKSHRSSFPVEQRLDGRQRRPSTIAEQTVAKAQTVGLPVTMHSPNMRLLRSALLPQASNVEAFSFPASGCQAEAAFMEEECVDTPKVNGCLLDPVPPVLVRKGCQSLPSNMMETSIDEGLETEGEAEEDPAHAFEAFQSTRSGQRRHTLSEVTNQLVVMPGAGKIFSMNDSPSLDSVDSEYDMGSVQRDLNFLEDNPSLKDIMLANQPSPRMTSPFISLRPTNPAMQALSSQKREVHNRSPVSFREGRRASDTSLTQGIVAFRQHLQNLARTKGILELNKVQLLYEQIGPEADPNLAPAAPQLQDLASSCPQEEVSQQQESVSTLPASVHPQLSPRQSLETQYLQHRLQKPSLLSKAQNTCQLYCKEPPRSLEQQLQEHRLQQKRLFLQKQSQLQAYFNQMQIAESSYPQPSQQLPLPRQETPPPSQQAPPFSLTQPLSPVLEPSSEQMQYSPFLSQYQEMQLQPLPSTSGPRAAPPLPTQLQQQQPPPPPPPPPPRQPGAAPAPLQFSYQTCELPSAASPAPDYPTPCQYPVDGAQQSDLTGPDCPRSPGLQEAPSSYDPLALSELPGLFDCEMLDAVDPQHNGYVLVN
T3 sequence (Q9Y2K2 59-365): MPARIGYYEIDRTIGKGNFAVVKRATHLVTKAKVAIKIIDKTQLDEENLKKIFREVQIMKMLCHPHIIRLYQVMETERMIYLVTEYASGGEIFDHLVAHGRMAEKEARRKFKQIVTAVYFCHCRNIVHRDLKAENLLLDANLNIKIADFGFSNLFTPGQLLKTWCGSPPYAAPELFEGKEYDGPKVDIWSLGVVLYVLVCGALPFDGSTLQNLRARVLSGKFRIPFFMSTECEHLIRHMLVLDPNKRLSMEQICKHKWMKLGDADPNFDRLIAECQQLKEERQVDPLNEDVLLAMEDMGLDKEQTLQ
T2 sequence (P57059 1-303): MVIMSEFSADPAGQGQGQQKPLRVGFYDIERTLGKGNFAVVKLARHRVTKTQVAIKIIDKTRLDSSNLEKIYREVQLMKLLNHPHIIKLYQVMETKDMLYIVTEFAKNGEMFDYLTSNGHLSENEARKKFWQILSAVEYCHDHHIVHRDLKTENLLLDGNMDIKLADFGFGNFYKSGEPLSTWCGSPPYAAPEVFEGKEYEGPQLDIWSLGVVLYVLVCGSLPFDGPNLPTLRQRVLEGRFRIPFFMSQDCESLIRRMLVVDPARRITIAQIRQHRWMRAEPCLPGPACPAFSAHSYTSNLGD

SMILES	IC50 [1] [nM]	IC50 [2] [nM]	IC50 [3] [nM]
COc1cc(-c2coc3cc(OCCN4CCCC4)ccc23)cc(OC(F)F)c1C(=O)NC1CCCCC1N (racemic) [Compound 124, N-(2-aminocyclohexyl)-2-(difluoromethoxy)-6-methoxy-4-(6-(2-(pyrrolidin-1-yl)ethoxy)benzofuran-3-yl)benzamide]	18	1220	161
COc1cc(-c2coc3cc(OCCN4CCCC4)ccc23)cc(OC(F)F)c1C(=O)NC1CCCC1N (racemic) [Compound 130, N-(2-aminocyclopentyl)-2-(difluoromethoxy)-6-methoxy-4-(6-(2-(pyrrolidin-1-yl)ethoxy)benzofuran-3-yl)benzamide]	103	> 10000	359
COc1cc(-c2coc3cc(OCCN4CCCC4)ccc23)cc(OC(F)F)c1C(=O)NC1CC1N (racemic) [Compound 131, N-(2-aminocyclopropyl)-2-(difluoromethoxy)-6-methoxy-4-(6-(2-(pyrrolidin-1-yl)ethoxy)benzofuran-3-yl)benzamide]	653	> 10000	1560
COc1cc(-c2coc3cc(-c4cn(C)nc4C)ccc23)cc2c1C(=O)N(CC(F)(F)F)CC2 [Compound 15, 6-(6-(1,3-dimethyl-1H-pyrazol-4-yl)benzofuran-3-yl)-8-methoxy-2-(2,2,2-trifluoroethyl)-3,4-dihydroisoquinolin-1 (2H)-one]	95	6040	174
COc1cc(-c2coc3cc(-c4cn(C)nc4C(F)(F)F)ccc23)cc2c1C(=O)N(CC(F)(F)F)CC2 [Compound 16, 8-methoxy-6-(6-(1-methyl-3-(trifluoromethyl)-1H-pyrazol-4-yl)benzofuran-3-yl)-2-(2,2,2-trifluoroethyl)-3,4-dihydroisoquinolin-1 (2H)-one]	3350	> 10000	5840
COc1cc(-c2coc3cc(-c4cn(C)nn4)ccc23)cc2c1C(=O)N(CC(F)(F)F)CC2 [Compound 17, 8-methoxy-6-(6-(1-methyl-1H-1,2,3-triazol-4-yl)benzofuran-3-yl)-2-(2,2,2-trifluoroethyl)-3,4-dihydroisoquinolin-1 (2H)-one]	28	2310	79
COc1cc(-c2coc3cc(-c4cn(C)nc4C#N)ccc23)cc2c1C(=O)N(CC(F)(F)F)CC2 [Compound 18, 4-(3-(8-methoxy-1-oxo-2-(2,2,2-trifluoroethyl)-1,2,3,4-tetrahydroisoquinolin-6-yl)benzofuran-6-yl)-1-methyl-1H-pyrazole-3-carbonitrile]	214	> 10000	237
COc1cc(-c2coc3cc(-c4cn(C)nc4OC)ccc23)cc2c1C(=O)N(CC(F)(F)F)CC2 [Compound 19, 8-methoxy-6-(6-(3-methoxy-1-methyl-1H-pyrazol-4-yl)benzofuran-3-yl)-2-(2,2,2-trifluoroethyl)-3,4-dihydroisoquinolin-1 (2H)-one]	80	3130	132
COc1cc(-c2coc3cc(-c4cnn(C)c4)ccc23)cc2c1C(=O)N(CC#N)CC2 [Compound 20, 2-(8-methoxy-6-(6-(1-methyl-1H-pyrazol-4-yl)benzofuran-3-yl)-1-oxo-3,4-dihydroisoquinolin-2 (1H)-yl) acetonitrile]	12	362	14
Cn1cc(-c2ccc3c(-c4cc5c(c(OC(F)F)c4)C(=O)N(CC#N)CC5)coc3c2)cn1 [Compound 21, 2-(8-(difluoromethoxy)-6-(6-(1-methyl-1H-pyrazol-4-yl)benzofuran-3-yl)-1-oxo-3,4-dihydroisoquinolin-2 (1H)-yl) acetonitrile]	11	289	15
COc1cc(-c2coc3cc(-c4cn(C)nc4F)ccc23)cc2c1C(=O)N(CC(F)(F)F)CC2 [Compound 22, 6-(6-(3-fluoro-1-methyl-1H-pyrazol-4-yl)benzofuran-3-yl)-8-methoxy-2-(2,2,2-trifluoroethyl)-3,4-dihydroisoquinolin-1 (2H)-one]	79	5920	127
COc1cc(-c2coc3cc(-c4cn(C)nc4Cl)ccc23)cc2c1C(=O)N(CC(F)(F)F)CC2 [Compound 23, 6-(6-(3-chloro-1-methyl-1H-pyrazol-4-yl)benzofuran-3-yl)-8-methoxy-2-(2,2,2-trifluoroethyl)-3,4-dihydroisoquinolin-1 (2H)-one]	223	> 10000	387
Cn1cc(-c2ccc3c(-c4cc5c(c(OC(F)F)c4)C(=O)N(CC(N)=O)CC5)coc3c2)cn1 [Compound 24, 2-(8-(difluoromethoxy)-6-(6-(1-methyl-1H-pyrazol-4-yl)benzofuran-3-yl)-1-oxo-3,4-dihydroisoquinolin-2 (1H)-yl) acetamide]	281	3340	320
COc1cc(-c2coc3cc(-c4cnn(C)c4)ccc23)cc(OC(F)F)c1C(=O)NCC(F)(F)F [Compound 25, 2-(difluoromethoxy)-6-methoxy-4-(6-(1-methyl-1H-pyrazol-4-yl)benzofuran-3-yl)-N-(2,2,2-trifluoroethyl)benzamide]	15	195	26
COc1cc(-c2coc3cc(-c4cnn(C)c4)ccc23)cc(OC(F)F)c1C(=O)N[C@@H]1C[C@@H]1F [Compound 26, 2-(difluoromethoxy)-N-((1R,2S)-2-fluorocyclopropyl)-6-methoxy-4-(6-(1-methyl-1H-pyrazol-4-yl)benzofuran-3-yl)benzamide]	3.4	33	5
COc1cc(-c2coc3cc(-c4cnn(C)c4)ccc23)cc2c1C(=O)N(C1CC1)CC2 [Compound 27, 2-cyclopropyl-8-methoxy-6-(6-(1-methyl-1H-pyrazol-4-yl)benzofuran-3-yl)-3,4-dihydroisoquinolin-1 (2H)-one]	34	1130	72
